Test results as given in ChEMBL document CHEMBL1201862, “PubChem BioAssay data set” (2004).
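Briefly, cells in 96-well plates were exposed to five compound concentrations for 48 h, and endpoints were estimated by linear interpolation. At the GI50, growth is halved.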 The source made the active and inactive calls. No stated cut-off is given here; in the data, active = GI50 up to about 1.1 µM and inactive = higher.

How the values were obtained:
Assay in all cases: inhibition of tumour cell growth, NCI panel, 48 h
[1] = test system: CCRF-CEM
[2] = test system: SK-OV-3
[3] = test system: SNB-75
[4] = test system: NCI-H460
[5] = test system: A498
[6] = test system: HCT-15
[7] = test system: NCI-H23
[8] = test system: EKVX
[9] = test system: SN12C
[10] = test system: OVCAR-3
[11] = test system: SF-295
[12] = test system: U-251
[13] = test system: SW-620
[14] = test system: HT-29
[15] = test system: HCC 2998
[16] = test system: NCI-H522

Structure (SMILES): Cc1[nH]c2ccccc2c1C1=NO/C(=N\O)C(c2c(C)[nH]c3ccccc23)C1 (centres undefined)
- GI50 [1]: 31.4 µM (inactive)
- GI50 [2]: 49.9 µM (inactive)
- GI50 [3]: 43.2 µM (inactive)
- GI50 [4]: 23.9 µM (inactive)
- GI50 [5]: 42.8 µM (inactive)
- GI50 [6]: 43 µM
- GI50 [7]: 62.1 µM (inactive)
- GI50 [8]: 27.3 µM (inactive)
- GI50 [9]: 37 µM (inactive)
- GI50 [10]: 26.9 µM (inactive)
- GI50 [11]: 36.7 µM (inactive)
- GI50 [12]: 42.9 µM (inactive)
- GI50 [13]: 57.5 µM (inactive)
- GI50 [14]: 22.7 µM (inactive)
- GI50 [15]: 37.9 µM (inactive)

Structure (SMILES): COc1cccc(/C=C(/C(=O)O)c2cc(OC)c(OC)c(OC)c2)c1
- GI50 [1]: 46.5 µM (inactive)
- GI50 [3]: > 100 µM (inactive)
- GI50 [4]: > 100 µM (inactive)
- GI50 [5]: > 100 µM (inactive)
- GI50 [6]: > 100 µM
- GI50 [8]: > 100 µM (inactive)
- GI50 [9]: > 100 µM (inactive)
- GI50 [10]: > 100 µM (inactive)
- GI50 [11]: > 100 µM (inactive)
- GI50 [12]: > 100 µM (inactive)
- GI50 [13]: > 100 µM (inactive)
- GI50 [14]: > 100 µM (inactive)
- GI50 [16]: > 100 µM (inactive)

Structure (SMILES): COc1ccc(N2C(=O)/C(=C/c3ccc(N(CCC#N)CCC#N)cc3C)N=C2/C=C\c2ccccc2)cc1
- GI50 [1]: 24 µM (inactive)
- GI50 [2]: 49.7 µM (inactive)
- GI50 [3]: > 100 µM (inactive)
- GI50 [4]: 33.4 µM (inactive)
- GI50 [6]: 5.69 µM
- GI50 [7]: 49.5 µM (inactive)
- GI50 [9]: 4.35 µM (inactive)
- GI50 [10]: > 100 µM (inactive)
- GI50 [11]: 35.5 µM (inactive)
- GI50 [12]: 46.8 µM (inactive)
- GI50 [13]: 33.2 µM (inactive)
- GI50 [14]: 38.9 µM (inactive)
- GI50 [16]: 17 µM (inactive)

Structure (SMILES): C=C[C@@]12CCCCC1C/C(=C(/O)OC)C(=O)C2 (some centres undefined)
- GI50 [1]: > 100 µM (inactive)
- GI50 [2]: > 100 µM (inactive)
- GI50 [3]: > 100 µM (inactive)
- GI50 [4]: > 100 µM (inactive)
- GI50 [7]: > 100 µM (inactive)
- GI50 [8]: > 100 µM (inactive)
- GI50 [9]: > 100 µM (inactive)
- GI50 [10]: > 100 µM (inactive)
- GI50 [11]: > 100 µM (inactive)
- GI50 [12]: > 100 µM (inactive)
- GI50 [13]: > 100 µM (inactive)
- GI50 [14]: > 100 µM (inactive)
- GI50 [15]: > 100 µM (inactive)
- GI50 [16]: > 100 µM (inactive)

Structure (SMILES): COC(=O)C1=C(C(=O)OC)C2(C)OC1C(=O)C21CC1 (centres undefined)
- GI50 [1]: 16.9 µM (inactive)
- GI50 [2]: > 100 µM (inactive)
- GI50 [3]: 28.9 µM (inactive)
- GI50 [4]: 24.9 µM (inactive)
- GI50 [6]: 19.7 µM
- GI50 [7]: 22 µM (inactive)
- GI50 [8]: 39.7 µM (inactive)
- GI50 [9]: 22.9 µM (inactive)
- GI50 [10]: 22.1 µM (inactive)
- GI50 [11]: 44 µM (inactive)
- GI50 [12]: > 100 µM (inactive)
- GI50 [13]: 19.5 µM (inactive)
- GI50 [14]: 18.1 µM (inactive)
- GI50 [15]: 25.5 µM (inactive)
- GI50 [16]: 11.2 µM (inactive)

Structure (SMILES): CCOc1cc2cnc3c4cc(OC)c(OC)cc4ccc3c2cc1OC
- GI50 [1]: 23.8 µM (inactive)
- GI50 [2]: > 100 µM (inactive)
- GI50 [3]: > 100 µM (inactive)
- GI50 [4]: > 100 µM (inactive)
- GI50 [6]: > 100 µM
- GI50 [7]: > 100 µM (inactive)
- GI50 [8]: > 100 µM (inactive)
- GI50 [9]: 30 µM (inactive)
- GI50 [10]: 29.9 µM (inactive)
- GI50 [11]: 26.4 µM (inactive)
- GI50 [12]: 6.4 µM (inactive)
- GI50 [13]: > 100 µM (inactive)
- GI50 [14]: > 100 µM (inactive)
- GI50 [15]: > 100 µM (inactive)
- GI50 [16]: 15.2 µM (inactive)

Structure (SMILES): OCn1nc2c(C3OCCO3)cc3ccccc3n2c1=S
- GI50 [1]: > 100 µM (inactive)
- GI50 [2]: > 100 µM (inactive)
- GI50 [3]: > 100 µM (inactive)
- GI50 [4]: > 100 µM (inactive)
- GI50 [5]: > 100 µM (inactive)
- GI50 [6]: > 100 µM
- GI50 [7]: > 100 µM (inactive)
- GI50 [8]: > 100 µM (inactive)
- GI50 [9]: > 100 µM (inactive)
- GI50 [10]: > 100 µM (inactive)
- GI50 [11]: > 100 µM (inactive)
- GI50 [12]: > 100 µM (inactive)
- GI50 [13]: > 100 µM (inactive)
- GI50 [14]: > 100 µM (inactive)
- GI50 [16]: > 100 µM (inactive)

Structure (SMILES): CC(C)=CCC/C(C)=C/CC/C(C)=C/Cc1c(O)c2ccccc2oc1=O
- GI50 [1]: > 100 µM (inactive)
- GI50 [2]: > 100 µM (inactive)
- GI50 [3]: > 100 µM (inactive)
- GI50 [4]: > 100 µM (inactive)
- GI50 [6]: 69 µM
- GI50 [7]: 55.8 µM (inactive)
- GI50 [8]: > 100 µM (inactive)
- GI50 [9]: > 100 µM (inactive)
- GI50 [10]: 75.5 µM (inactive)
- GI50 [11]: > 100 µM (inactive)
- GI50 [12]: 57.9 µM (inactive)
- GI50 [13]: > 100 µM (inactive)
- GI50 [14]: > 100 µM (inactive)
- GI50 [15]: > 100 µM (inactive)
- GI50 [16]: > 100 µM (inactive)

Structure (SMILES): COC(=O)/C(=N\NC(=S)NN)C(C(=O)C(=O)Nc1ccccc1C(N)=O)c1nc2ccccc2nc1O (centres undefined)
- GI50 [1]: > 100 µM (inactive)
- GI50 [6]: > 100 µM
- GI50 [7]: 7.69 µM (inactive)
- GI50 [8]: > 100 µM (inactive)
- GI50 [9]: > 100 µM (inactive)
- GI50 [11]: > 100 µM (inactive)
- GI50 [12]: > 100 µM (inactive)
- GI50 [13]: > 100 µM (inactive)
- GI50 [15]: > 100 µM (inactive)
- GI50 [16]: > 100 µM (inactive)

Structure (SMILES): CP(C)C.[Ag][I]
- GI50 [1]: 22 µM (inactive)
- GI50 [2]: > 100 µM (inactive)
- GI50 [3]: 20 µM (inactive)
- GI50 [4]: > 100 µM (inactive)
- GI50 [6]: > 100 µM
- GI50 [7]: 85.3 µM (inactive)
- GI50 [8]: > 100 µM (inactive)
- GI50 [9]: > 100 µM (inactive)
- GI50 [10]: > 100 µM (inactive)
- GI50 [11]: > 100 µM (inactive)
- GI50 [12]: > 100 µM (inactive)
- GI50 [13]: > 100 µM (inactive)
- GI50 [14]: > 100 µM (inactive)
- GI50 [15]: > 100 µM (inactive)

Structure (SMILES): O=C1CCN2C(=Nc3cccc4cccc2c34)N1
- GI50 [1]: > 100 µM (inactive)
- GI50 [2]: > 100 µM (inactive)
- GI50 [3]: 76.9 µM (inactive)
- GI50 [4]: > 100 µM (inactive)
- GI50 [6]: > 100 µM
- GI50 [7]: > 100 µM (inactive)
- GI50 [8]: 0.551 µM (active)
- GI50 [9]: > 100 µM (inactive)
- GI50 [12]: > 100 µM (inactive)
- GI50 [13]: > 100 µM (inactive)
- GI50 [14]: > 100 µM (inactive)
- GI50 [15]: > 100 µM (inactive)

Structure (SMILES): Cc1nc(N)sc1C(=O)/C=C/c1ccc(/C=C/C(=O)c2sc(NC(=O)CCCCCCCCC(=O)Nc3nc(C)c(C(=O)/C=C/c4ccc(/C=C/C(=O)c5sc(N)nc5C)cc4)s3)nc2C)cc1
- GI50 [1]: 80.9 µM (inactive)
- GI50 [2]: > 100 µM (inactive)
- GI50 [4]: > 100 µM (inactive)
- GI50 [6]: > 100 µM
- GI50 [7]: > 100 µM (inactive)
- GI50 [8]: > 100 µM (inactive)
- GI50 [9]: > 100 µM (inactive)
- GI50 [10]: 62.8 µM (inactive)
- GI50 [11]: > 100 µM (inactive)
- GI50 [12]: > 100 µM (inactive)
- GI50 [13]: > 100 µM (inactive)
- GI50 [14]: > 100 µM (inactive)
- GI50 [15]: > 100 µM (inactive)
- GI50 [16]: 64.6 µM (inactive)

Structure (SMILES): CCOC(=O)C(NO)C(Sc1ccccc1)c1ccc(OC)cc1 (centres undefined)
- GI50 [2]: > 100 µM (inactive)
- GI50 [3]: 55.5 µM (inactive)
- GI50 [4]: 44.4 µM (inactive)
- GI50 [6]: 68.9 µM
- GI50 [7]: > 100 µM (inactive)
- GI50 [8]: > 100 µM (inactive)
- GI50 [9]: > 100 µM (inactive)
- GI50 [10]: 91 µM (inactive)
- GI50 [11]: > 100 µM (inactive)
- GI50 [12]: > 100 µM (inactive)
- GI50 [13]: > 100 µM (inactive)
- GI50 [14]: > 100 µM (inactive)
- GI50 [15]: > 100 µM (inactive)
- GI50 [16]: 34.8 µM (inactive)

Structure (SMILES): O=C(Cc1nc2ccccc2s1)C(=O)Nc1ccc(Cl)cc1Cl
- GI50 [2]: > 100 µM (inactive)
- GI50 [3]: 47.4 µM (inactive)
- GI50 [4]: > 100 µM (inactive)
- GI50 [6]: > 100 µM
- GI50 [7]: 54 µM (inactive)
- GI50 [9]: > 100 µM (inactive)
- GI50 [10]: > 100 µM (inactive)
- GI50 [11]: > 100 µM (inactive)
- GI50 [12]: > 100 µM (inactive)
- GI50 [13]: > 100 µM (inactive)
- GI50 [14]: > 100 µM (inactive)
- GI50 [15]: > 100 µM (inactive)

Structure (SMILES): COc1cc(N)c2[nH]c3c(C)ccc(C)c3c2c1
- GI50 [1]: > 100 µM (inactive)
- GI50 [3]: > 100 µM (inactive)
- GI50 [4]: > 100 µM (inactive)
- GI50 [6]: > 100 µM
- GI50 [7]: > 10 µM (inactive)
- GI50 [8]: > 100 µM (inactive)
- GI50 [9]: > 100 µM (inactive)
- GI50 [10]: > 100 µM (inactive)
- GI50 [11]: > 100 µM (inactive)
- GI50 [13]: > 100 µM (inactive)
- GI50 [14]: > 100 µM (inactive)
- GI50 [15]: > 100 µM (inactive)
- GI50 [16]: > 100 µM (inactive)
